From patent US20120322060A1, “DIAGNOSIS AND MONITORING TREATMENT OF PSYCHIATRIC DISEASES WITH SPADIN AND RELATED METHODS” (CENTRE NATIONAL DE LE RECHERCHE SCIENTIFIQUE - CNRS -, priority 2011, published 2012)
Where two headings read alike, the source gives them in different places. No end group written: not given here.

Legend:
TREK-1 [1] = molecular target: T1, TREK-1 (Mus musculus, UniProt P97438); assay: Whole-cell patch-clamp on cultured pyramidal neurons from hippocampus; assay type: cell-based; design: endogenous in cells; host or cells: primary hippocampal pyramidal neurons from newborn mice; conditions: 10 μM, K+ blockers, at -50 mV, 7 out of 70 neurons
T1 sequence (P97438 1-426): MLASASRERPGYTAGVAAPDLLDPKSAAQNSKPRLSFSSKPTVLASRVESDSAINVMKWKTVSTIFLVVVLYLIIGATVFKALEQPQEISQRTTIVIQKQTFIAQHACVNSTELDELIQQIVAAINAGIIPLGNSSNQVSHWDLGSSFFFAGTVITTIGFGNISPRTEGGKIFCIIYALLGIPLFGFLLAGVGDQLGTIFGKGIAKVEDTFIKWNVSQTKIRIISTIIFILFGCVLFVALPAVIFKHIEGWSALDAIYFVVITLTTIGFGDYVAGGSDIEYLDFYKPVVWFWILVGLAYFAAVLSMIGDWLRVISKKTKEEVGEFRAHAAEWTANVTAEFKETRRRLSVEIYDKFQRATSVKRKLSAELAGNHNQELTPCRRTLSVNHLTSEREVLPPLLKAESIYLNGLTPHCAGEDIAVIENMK
Experimental: A, Cultured pyramidal neuron from hippocampus, with on top, the patch-clamp pipette. Neurons were chosen according to their morphology. B, Current recorded in response to ramps of potential obtained in the various conditions indicated (aa: arachidonic acid: 10 μM, Spadin: 1[…]μM, Fluoxetine: 20 μM). Neurons were recorded in the whole-cell configuration of the patch-clamp technique. In voltage-clamp, ramps of potential from −90 mV to 70 mV were applied every 10 sec. The % variation of the current amplitude was always measured at −50 mV. The currents were recorded in response to such ramps in control conditions and in the presence of a cocktail of potassium blockers suitable to isolate the TREK currents (10 mM tetraethyl ammonium (TEA), 3 mM 4-aminopyridine (4-AP), 50 nM charybdotoxin, 10 μM glibenclamide, 100 nM apamin). […] The blocks were reversible. C, Time course of spadin and fluoxetine effects. Applications are indicated by the horizontal bars.
Cortical neurons were prepared from 14 old mouse embryos whereas hippocampal neurons were prepared from new born mice. Briefly, dissected brain areas were dissociated and neurons were plated on polylysine-treated 35 or 60 mm dishes and maintained in culture in Neurobasal medium supplemented with B27, Glutamax and antibiotics for 2 to 3 weeks before to be used for electrophsysiological or biochemical experiments.

TREK-1 [2] = molecular target: T1, TREK-1; assay: Whole-cell patch-clamp on CA3 pyramidal neurons in hippocampus brain slices; assay type: cell-based; design: a cellular network that endogenously expresses both TREK-1 and NTSR3/Sortilin; from tissue; host or cells: mouse hippocampal brain slices, CA3 pyramidal neurons; conditions: wild-type CA3 neurons, K+ blockers, 10 μM aa, n=12
mice [3] = assay: Staircase test; assay type: in vivo, mouse; conditions: spadin i.p. 10^-5 M, diazepam i.p. 0.5 mg/kg
Experimental: The apparatus comprised an enclosed staircase consisted of five identical steps (2.5 cm in height×11 cm in width×7.5 cm in length), each made of black plastic. The height of the walls was constant (12.5 cm above the stairs) along the entire length of the staircase. Each mouse was placed individually on the floor of the staircase with its back to the staircase. A step was considered climbed only if the mouse placed all four paws on it. Rearing was recorded when the mouse rose on its hind legs either on the step or against the wall. The number of steps ascended and the number of rearings made in a 3-min period were recorded. Results were expressed as ratio of rearing/step numbers.

mice [4] = assay: Light/dark exploration; assay type: in vivo, mouse; conditions: spadin i.p. 10^-5 M, diazepam i.p. 0.5 mg/kg
Experimental: The apparatus consisted of a cage (25×40×20 cm) divided into two compartments by a black partition containing a small opening that allows mouse to move from one compartment to the other. One compartment, comprising […] of the surface area, was made of white plastic and was brightly illuminated. The adjoining smaller compartment was black and dark. Mice were placed in the white compartment and allowed to move freely between the two chambers for 5 minutes. The number of transitions between the two compartments, time spent in the white chamber, and latency to the first transition were recorded. Mice tend to avoid the white compartment. Thus the measures of exploration in this area (time and entrances) were used as experimental indices of anxiety.

mice [5] = assay: Elevated plus-maze; assay type: in vivo, mouse; conditions: spadin i.p. 10^-5 M, diazepam i.p. 0.5 mg/kg
Description: Elevated plus-maze. The apparatus consisted of two open and two enclosed arms of the same size (45×5 cm) with walls 15 cm high. The arms, constructed of black acrylic, radiate from a common central platform (5×5 cm) to form a plus sign. Open arms were arranged opposite to one another, as were closed arms. The maze was elevated to a height of 45 cm above floor level. Each mouse was placed in the central platform facing one of the open arms. The number of entries into the open and closed arms and the time spent on the open and closed arms were recorded during a 5 min test period. Time spent in the unprotected open arms as well as the number of entries in open arms in relation to the total of arm entries are used as experimental indices of anxiety.

TREK-1 [6] = molecular target: T1, TREK-1; assay: Whole-cell patch-clamp on TREK-1 transfected COS-7 cells; assay type: cell-based; design: GFP; expressed in transfected cells; host or cells: COS-7 (DEAE-dextran transfection); conditions: 500 nM, 10 μM aa, at 0 mV, n=4
Experimental: All electrophysiological experiments were done on COS-7 cells seeded at a density of 20,000 cells/35-mm dish 24 h before transfection. Cells were transfected by the classical DEAE-dextran method with TREK-1-GFP plasmids (0.1 μg/μL). Cells were visualized 48-72 h after transfection using fluorescence.
The whole-cell patch-clamp technique was used to evaluate TREK-1 potassium channel current by using a RK 400 patch-clamp amplifier (Axon Instruments, U.S.A.), as previously described. Currents were lowpass filtered at 3 kHz, digitized at 10 kHz using a 12-bit analog-to-digital converter. […] The bath solution contained (in mM): 150 NaCl, 5 KCl, 3 MgCl2, 1 CaCl2, and 10 HEPES, adjusted to pH 7.4 with NaOH; the patch pipette solution contained (in mM): 155 KCl, 3 MgCl2, 5 EGTA, and 10 HEPES, adjusted to pH 7.2 with KOH. Cells were clamped at −80 mV and voltage changes were either applied by ramp (from −100 to 50 mV, 1 s in duration) or by step (from −100 to 40 mV, 1.5 s in duration). Cells were continuously superfused with a microperfusion system. The pipette capacitance was not subtracted from total membrane capacitance and there was no leak substraction. All experiments were done at room temperature (21° C. to 22° C.) and in the presence of a cocktail of potassium channel inhibitors (K^+ blockers: 10 mM tetraethyl ammonium (TEA), 3 mM 4-aminopyridine (4-AP), 50 nM charybdotoxin, 10 μM glibenclamide, 100 nM apamin).
Pclamp software was used to analyze currents recorded in the whole-cell mode measured at 0 mV. Results are expressed as means±SD. To obtain the IC50 value for dose-dependent inhibition, experimental data were fitted with a standard sigmoidal function.

NTSR3/Sortilin = molecular target: T2, NTSR3/Sortilin (Homo sapiens, UniProt Q99523); conditions: cited from earlier work; for binding activity / affinity for NTSR3/Sortilin: structure-function studies [15]
T2 sequence (Q99523 78-831): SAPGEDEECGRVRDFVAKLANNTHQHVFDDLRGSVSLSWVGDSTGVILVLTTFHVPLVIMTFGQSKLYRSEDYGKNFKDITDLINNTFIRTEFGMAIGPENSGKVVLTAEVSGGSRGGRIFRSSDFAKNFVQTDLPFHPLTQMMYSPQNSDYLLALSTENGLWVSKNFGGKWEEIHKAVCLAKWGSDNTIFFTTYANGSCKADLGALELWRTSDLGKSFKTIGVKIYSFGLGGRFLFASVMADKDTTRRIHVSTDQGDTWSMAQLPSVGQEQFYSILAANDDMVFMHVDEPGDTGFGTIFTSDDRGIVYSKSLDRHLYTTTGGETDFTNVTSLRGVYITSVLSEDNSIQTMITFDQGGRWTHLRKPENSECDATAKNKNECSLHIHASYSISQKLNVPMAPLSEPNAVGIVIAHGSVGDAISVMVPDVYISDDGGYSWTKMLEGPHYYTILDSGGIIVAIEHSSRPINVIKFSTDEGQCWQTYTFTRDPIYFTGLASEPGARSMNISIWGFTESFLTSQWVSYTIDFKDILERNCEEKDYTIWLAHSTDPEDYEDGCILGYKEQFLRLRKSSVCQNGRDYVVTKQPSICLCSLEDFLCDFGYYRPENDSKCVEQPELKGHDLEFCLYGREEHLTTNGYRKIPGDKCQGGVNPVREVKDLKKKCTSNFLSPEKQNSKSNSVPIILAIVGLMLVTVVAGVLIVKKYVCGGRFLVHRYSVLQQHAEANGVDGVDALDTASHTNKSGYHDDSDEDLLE

[7] = molecular target: NTSR3/Sortilin (endogenous, C13NJ microglial cell line); assay: cell-based or functional assay
[8] = molecular target: TREK-1 channel (expressed by transfection in COS-7 cells); assay: cell-based or functional assay
Sequence of TREK-1 channel (expressed by transfection in COS-7 cells) (O95069 whole entry): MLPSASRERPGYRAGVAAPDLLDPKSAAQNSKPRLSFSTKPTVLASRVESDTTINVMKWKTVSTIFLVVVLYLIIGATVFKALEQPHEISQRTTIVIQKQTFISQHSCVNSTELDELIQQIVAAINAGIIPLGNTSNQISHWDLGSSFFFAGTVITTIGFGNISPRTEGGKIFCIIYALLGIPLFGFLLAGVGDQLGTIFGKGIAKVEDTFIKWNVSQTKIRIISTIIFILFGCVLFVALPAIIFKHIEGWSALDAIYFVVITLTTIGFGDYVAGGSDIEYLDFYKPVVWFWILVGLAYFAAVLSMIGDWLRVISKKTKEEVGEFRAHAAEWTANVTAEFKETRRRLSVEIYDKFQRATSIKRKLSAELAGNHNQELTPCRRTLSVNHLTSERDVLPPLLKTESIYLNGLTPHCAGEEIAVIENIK

[9] = molecular target: TREK-1 channel (expressed by transfection in COS-7 cells); assay: competition with 0.2 nM 125I-spadin on TREK-1 transfected COS-7 cell homogenates, filtration

With `CCCCC/C=C\C/C=C\C/C=C\C/C=C\CCCC(=O)O` [arachidonic acid, Arachidonic acid] the “increase of remaining current” value (TREK-1 [1]) was “about 50%” and the “increase of amplitude of the remaining current” value (TREK-1 [2]) was 23.3+4.8%.

In the case of `CN1C(=O)CN=C(c2ccccc2)c2cc(Cl)ccc21` [diazepam, reference compound], the rearing/step numbers ratio (mice [3]) is reported as “decrease of the rearing/step numbers ratio”, the “number of light/dark transitions” value (mice [4]) is reported as “significantly induced an increase” and the “time spent in the open arms” value (mice [5]) is reported as “significantly reduced the time spent into the aversive open arms”.

In the case of “QDRLDAPPPPAAPLPRWSGPIGVSWGLRAAAAGGAFPRGGRWRR [propeptide, 44 residue N-terminal propeptide released from prosortilin by furin]”, the “block of aa stimulated TREK-1 current” value (TREK-1 [6]) is listed as 41±5% and the Kd (NTSR3/Sortilin; read-out: Kd for the mature receptor) is listed as about 5 nM.

In the case of “neurotensin (from UniProt P30990 151-163) (peptide)”, the C13NJ cell migration in wound-healing assay with 10 nM NT (% of migration with 10% FCS) [7] is reported as 35.1%.

Work on “NTSR3/Sortilin (expressed by transfection in COS-7 cells) (from UniProt Q99523 78-831) (receptor)” yielded an expression of TREK-1 within the plasma membranes (cell surface biotinylation, Western blot) [8] of 6 fold and an expression of TREK-1 within the plasma membranes (purified plasma membranes, Western blot) [8] of 3 fold.

In the case of “Gln^1-Arg^28: peptide Gln1-Arg28 of the NTSR3/Sortilin propeptide, from literature”, the “binding activity / affinity for NTSR3/Sortilin” value (NTSR3/Sortilin) is given as “as efficient on the binding activity as the entire propeptide” and the “binding activity / affinity for NTSR3/Sortilin” value (NTSR3/Sortilin; listed as Gln^1-Arg^16) is given as “very low”.

QDRLDAPPPPAAPLPR [N-terminal fragment Gln1-Arg16 of the full length propeptide] showed an affinity [9] of 1 µM.

APLPRWSGPIGVSWGLR (also: monoiodinated (125I) on Tyr0, an added N-terminal Tyr not in given chain) [125I-spadin] showed a share of cell-bound 125I-spadin resistant to the acid-NaCl wash (intracellular) on TREK-1 expressing COS-7 cells at 37° C. [8] of 80%.
